Patent EP3030673B1, “SCREENING AND IDENTIFICATION OF RESISTANT MARKERS IN CRUSTACEAN” (priority 2013, dated 2015)
Where two headings read alike, the source gives them in different places.

Key:
Format in all cases: in vivo, Lepeophtheirus salmonis
[1] = test system: LsHybridV (LsVikna as its maternal strain); test: Deltamethrin bioassay on adult male sea lice, hybrid strain with resistant maternal strain
Procedure: (§1) In order to hybridise the lice strains for the inheritance experiment, the parental strains were first synchronised and multiplied up in numbers by simultaneously infecting 20 Atlantic salmon with copepods. In total, 1000 copepods per strain were added. At 32 days post infection (dpi), all salmon were anaesthetised and approximately half of the lice were carefully removed using tweezers. At this stage, lice were predominantly preadult 2 females and adult males, with a few percent adult females and preadult 2 males. The lice removed from the salmon were sexed, and then used to create the reciprocal hybrid strains. This was achieved by combining 4-5 females from the resistant strain and 4-5 males from the sensitive strain (LsHybridV), and 4-5 females from the sensitive strain and 4-5 males from the resistant strain (LsHybridG). Only preadult 2 females were used. These combinations were each placed into 2 replicate tanks in order to make two hybrid strains (4 groups and 8 tanks at this stage). At 67-68 dpi, all lice were removed from the four strains. Egg strings were removed from adult females and incubated in containers containing a single strain each. The number of adult lice, and harvested egg strings varied, but all were incubated (Table 2). Table 2. Number of egg strings collected from each strain. Egg strings from replicate tanks were pooled. Most egg strings were part of a pair.
(§2) The subsequent generation (F2, Fig. 2) were both produced using the general procedure described above, although the hybrid strains were only crossed back to themselves to create multiple generation-hybrids. Collection of egg strings, which marked the establishment of a new generation, was done at 55 and 56 dpi respectively. Salmon that hosted the previous generation were re-used for reinfection with the next generation, but hosted only the same experimental strain.
(§3) Each strain, including both types of hybrids obtained in example 1 were quantified in their tolerance of deltamethrin at sampling points 1 and 2 representing the F1 and F2 generations for the hybrids (Fig. 1 and 2). Bioassays were performed according to standard guidelines (SEARCH Consortium, 2006, Sea lice resistance to chemotherapeutants: A handbook in resistance management. 2 ed.), with minor modifications. Only adult male lice were used for the bioassay, which after sampling (at 55 or 56 dpi) had been incubated overnight in running seawater (ca. 10 °C). The 30 min exposure to the prepared deltamethrin concentration was also carried out at ca. 10 °C, and higher concentrations than those described in the given protocol were included (Table S3). After exposure to deltamethrin, the lice were kept in running seawater (24 h at ca. 10 °C) until evaluation of the bioassays. […] EC50 values were calculated using probit analysis (PoloPlus 2.0; LeOra Software, CA, USA). Table 3a. Deltamethrin bioassays performed on sampling set 1

[2] = test system: LsVikna (pyrethroid resistant strain); test: Deltamethrin bioassay on adult male sea lice, pyrethroid resistant strain
Description: (§4) In order to investigate the inheritance and mechanism of pyrethroid resistance in L. salmonis, two strains (sensitive and resistant) and their reciprocal hybrids were used for a two-generation breeding experiment complimented with bioassays to measure tolerance (Fig. 2). The pyrethroid sensitive strain (hereon also referred to as LsGulen) was collected in June 2006 from newly slaughtered rainbow trout from Gulen in western Norway. The pyrethroid resistant strain (hereon also referred to as LsVikna) was collected in February 2009 from a salmon farm in Vikna, North Trøndelag, Norway. The resistant strain was collected on the basis of suspected reduced sensitivity to pyrethroids due to the fact that there had been reported a treatment failure on the farm from which it was collected. This was subsequently confirmed in bioassays with LsGulen as sensitive control.
as §3, with “Deltamethrin bioassays performed on sampling set 1” left out

[3] = test system: LsHybridG (LsGulen as its maternal strain)
Procedure: as §1, §2, §3

[4] = test system: LsGulen (pyrethroid sensitive strain)
Description: as §4
as §3, with “Deltamethrin bioassays performed on sampling set 1” left out

## CC1(C)[C@H](C(=O)O[C@H](C#N)c2cccc(Oc3ccccc3)c2)[C@@H]1C=C(Br)Br [Deltamethrin, deltamethrin]
[1]; above 1 ppb, maternal hybrid strain of the resistant strain
  survival of the bioassay: survived the bioassay
[1]; sampling set 1, F1, fish tank 02, dose 0.1 ppb
  % Inactive: 0%
[1]; sampling set 1, F1, fish tank 02, dose 0.3 ppb
  % Inactive: 0%
[1]; sampling set 1, F1, fish tank 02, dose 1 ppb
  % Inactive: 5%
[1]; sampling set 1, F1, fish tank 02, dose 3 ppb
  % Inactive: 13%
[1]; sampling set 1, F1, fish tank 02, dose 6 ppb
  % Inactive: 5%
[1]; sampling set 1, F1, fish tank 02, dose 12 ppb
  % Inactive: 31%
[1]; sampling set 1, F1, fish tank 06, dose 0.1 ppb
  % Inactive: 0%
[1]; sampling set 1, F1, fish tank 06, dose 0.3 ppb
  % Inactive: 0%
[1]; sampling set 1, F1, fish tank 06, dose 1 ppb
  % Inactive: 7%
[1]; sampling set 1, F1, fish tank 06, dose 3 ppb
  % Inactive: 2%
[1]; sampling set 1, F1, fish tank 06, dose 6 ppb
  % Inactive: 9%
[1]; sampling set 1, F1, fish tank 06, dose 12 ppb
  % Inactive: 32%
[1]; sampling set 2, F2, fish tank 06, dose 0.1 ppb
  % Inactive: 0%
[1]; sampling set 2, F2, fish tank 06, dose 0.3 ppb
  % Inactive: 0%
[1]; sampling set 2, F2, fish tank 06, dose 0.5 ppb
  % Inactive: 0%
[1]; sampling set 2, F2, fish tank 06, dose 1 ppb
  % Inactive: 0%
[1]; sampling set 2, F2, fish tank 06, dose 3 ppb
  % Inactive: 16%
[1]; sampling set 2, F2, fish tank 06, dose 6 ppb
  % Inactive: 14%
[1]; sampling set 2, F2, fish tank 06, dose 12 ppb
  % Inactive: 21%
[1]; sampling set 2, F2, fish tank 06, dose 20 ppb
  % Inactive: 40%
[1]; sampling set 2, F2, fish tank 09, dose 0.1 ppb
  % Inactive: 14%
[1]; sampling set 2, F2, fish tank 09, dose 0.3 ppb
  % Inactive: 0%
[1]; sampling set 2, F2, fish tank 09, dose 0.5 ppb
  % Inactive: 3%
[1]; sampling set 2, F2, fish tank 09, dose 1 ppb
  % Inactive: 5%
[1]; sampling set 2, F2, fish tank 09, dose 3 ppb
  % Inactive: 0%
[1]; sampling set 2, F2, fish tank 09, dose 6 ppb
  % Inactive: 19%
[1]; sampling set 2, F2, fish tank 09, dose 12 ppb
  % Inactive: 8%
[1]; sampling set 2, F2, fish tank 09, dose 20 ppb
  % Inactive: 54%
[2]; above 1 ppb, resistant strain
  survival of the bioassay: survived the bioassay
[2]; sampling set 1, F6, fish tank 05, dose 0.1 ppb
  % Inactive: 0%
[2]; sampling set 1, F6, fish tank 05, dose 0.3 ppb
  % Inactive: 0%
[2]; sampling set 1, F6, fish tank 05, dose 1 ppb
  % Inactive: 12%
[2]; sampling set 1, F6, fish tank 05, dose 3 ppb
  % Inactive: 27%
[2]; sampling set 1, F6, fish tank 05, dose 6 ppb
  % Inactive: 35%
[2]; sampling set 1, F6, fish tank 05, dose 12 ppb
  % Inactive: 41%
[2]; sampling set 1, F6, fish tank 09, dose 0.1 ppb
  % Inactive: 4%
[2]; sampling set 1, F6, fish tank 09, dose 0.3 ppb
  % Inactive: 0%
[2]; sampling set 1, F6, fish tank 09, dose 1 ppb
  % Inactive: 10%
[2]; sampling set 1, F6, fish tank 09, dose 3 ppb
  % Inactive: 19%
[2]; sampling set 1, F6, fish tank 09, dose 6 ppb
  % Inactive: 23%
[2]; sampling set 1, F6, fish tank 09, dose 12 ppb
  % Inactive: 28%
[2]; sampling set 2, F7, fish tank 08, dose 0.1 ppb
  % Inactive: 0%
[2]; sampling set 2, F7, fish tank 08, dose 0.3 ppb
  % Inactive: 0%
[2]; sampling set 2, F7, fish tank 08, dose 0.5 ppb
  % Inactive: 0%
[2]; sampling set 2, F7, fish tank 08, dose 1 ppb
  % Inactive: 0%
[2]; sampling set 2, F7, fish tank 08, dose 3 ppb
  % Inactive: 6%
[2]; sampling set 2, F7, fish tank 08, dose 6 ppb
  % Inactive: 18%
[2]; sampling set 2, F7, fish tank 08, dose 12 ppb
  % Inactive: 0%
[2]; sampling set 2, F7, fish tank 08, dose 20 ppb
  % Inactive: 39%
[3]; above 1 ppb, maternal hybrid strain of the sensitive strain
  mortality: 100%
[3]; sampling set 1, F1, fish tank 01, dose 0.1 ppb
  % Inactive: 0%
[3]; sampling set 1, F1, fish tank 01, dose 0.3 ppb
  % Inactive: 21%
[3]; sampling set 1, F1, fish tank 01, dose 1 ppb
  % Inactive: 100%
[3]; sampling set 1, F1, fish tank 01, dose 3 ppb
  % Inactive: 100%
[3]; sampling set 1, F1, fish tank 01, dose 6 ppb
  % Inactive: 100%
[3]; sampling set 1, F1, fish tank 01, dose 12 ppb
  % Inactive: 100%
[3]; sampling set 1, F1, fish tank 07, dose 0.1 ppb
  % Inactive: 18%
[3]; sampling set 1, F1, fish tank 07, dose 0.3 ppb
  % Inactive: 32%
[3]; sampling set 1, F1, fish tank 07, dose 1 ppb
  % Inactive: 100%
[3]; sampling set 1, F1, fish tank 07, dose 3 ppb
  % Inactive: 100%
[3]; sampling set 1, F1, fish tank 07, dose 6 ppb
  % Inactive: 100%
[3]; sampling set 1, F1, fish tank 07, dose 12 ppb
  % Inactive: 100%
[3]; sampling set 2, F2, fish tank 07, dose 0.1 ppb
  % Inactive: 0%
[3]; sampling set 2, F2, fish tank 07, dose 0.3 ppb
  % Inactive: 50%
[3]; sampling set 2, F2, fish tank 07, dose 0.5 ppb
  % Inactive: 85%
[3]; sampling set 2, F2, fish tank 07, dose 1 ppb
  % Inactive: 90%
[3]; sampling set 2, F2, fish tank 07, dose 3 ppb
  % Inactive: 100%
[3]; sampling set 2, F2, fish tank 07, dose 6 ppb
  % Inactive: 100%
[3]; sampling set 2, F2, fish tank 07, dose 12 ppb
  % Inactive: 100%
[3]; sampling set 2, F2, fish tank 07, dose 20 ppb
  % Inactive: 100%
[3]; sampling set 2, F2, fish tank 10, dose 0.1 ppb
  % Inactive: 5%
[3]; sampling set 2, F2, fish tank 10, dose 0.3 ppb
  % Inactive: 43%
[3]; sampling set 2, F2, fish tank 10, dose 0.5 ppb
  % Inactive: 72%
[3]; sampling set 2, F2, fish tank 10, dose 1 ppb
  % Inactive: 100%
[3]; sampling set 2, F2, fish tank 10, dose 3 ppb
  % Inactive: 100%
[3]; sampling set 2, F2, fish tank 10, dose 6 ppb
  % Inactive: 100%
[3]; sampling set 2, F2, fish tank 10, dose 12 ppb
  % Inactive: 100%
[3]; sampling set 2, F2, fish tank 10, dose 20 ppb
  % Inactive: 100%
[4]; above 1 ppb, sensitive strain
  mortality: 100%
[4]; sampling set 1, F15, fish tank 04, dose 0.1 ppb
  % Inactive: 0%
[4]; sampling set 1, F15, fish tank 04, dose 0.3 ppb
  % Inactive: 48%
[4]; sampling set 1, F15, fish tank 04, dose 1 ppb
  % Inactive: 100%
[4]; sampling set 1, F15, fish tank 04, dose 3 ppb
  % Inactive: 100%
[4]; sampling set 1, F15, fish tank 04, dose 6 ppb
  % Inactive: 100%
[4]; sampling set 1, F15, fish tank 04, dose 12 ppb
  % Inactive: 100%
[4]; sampling set 1, F15, fish tank 10, dose 0.1 ppb
  % Inactive: 0%
[4]; sampling set 1, F15, fish tank 10, dose 0.3 ppb
  % Inactive: 50%
[4]; sampling set 1, F15, fish tank 10, dose 1 ppb
  % Inactive: 100%
[4]; sampling set 1, F15, fish tank 10, dose 3 ppb
  % Inactive: 100%
[4]; sampling set 1, F15, fish tank 10, dose 6 ppb
  % Inactive: 100%
[4]; sampling set 1, F15, fish tank 10, dose 12 ppb
  % Inactive: 100%
[4]; sampling set 2, F16, fish tank 03, dose 0.1 ppb
  % Inactive: 5%
[4]; sampling set 2, F16, fish tank 03, dose 0.3 ppb
  % Inactive: 48%
[4]; sampling set 2, F16, fish tank 03, dose 0.5 ppb
  % Inactive: 86%
[4]; sampling set 2, F16, fish tank 03, dose 1 ppb
  % Inactive: 100%
[4]; sampling set 2, F16, fish tank 03, dose 3 ppb
  % Inactive: 100%
[4]; sampling set 2, F16, fish tank 03, dose 6 ppb
  % Inactive: 100%
[4]; sampling set 2, F16, fish tank 04, dose 0.1 ppb
  % Inactive: 8%
[4]; sampling set 2, F16, fish tank 04, dose 0.3 ppb
  % Inactive: 55%
[4]; sampling set 2, F16, fish tank 04, dose 0.5 ppb
  % Inactive: 95%
[4]; sampling set 2, F16, fish tank 04, dose 1 ppb
  % Inactive: 100%
[4]; sampling set 2, F16, fish tank 04, dose 3 ppb
  % Inactive: 100%
[4]; sampling set 2, F16, fish tank 04, dose 6 ppb
  % Inactive: 100%
[4]; sampling set 2, F16, fish tank 04, dose 12 ppb
  % Inactive: 100%
